In brackets after ≈: the same amount, converted by molar mass.
Legend:
[1] = Kinetic solubility of compound; format: physicochemical
Hepatitis B virus = test: Antiviral activity against HBV infected in human HePAD38 cells measured after 6 days by qPCR analysis; format: functional, organism-based; conditions: HePAD38, 144 h
[2] = Metabolic stability in mouse liver microsome assessed as liver blood flow by HPLC analysis relative to control; format: ADME; conditions: microsomes
[3] = Cytotoxicity against human HePAD38 cells measured after 6 days by prestoblue reagent based analysis; format: toxicity, cell-based; conditions: time 6 day
[4] = biological target: Voltage-gated inwardly rectifying potassium channel KCNH2 (Homo sapiens, UniProt Q12809); test: Inhibition of human ERG by patch clamp assay; format: toxicity
Chain of Voltage-gated inwardly rectifying potassium channel KCNH2 (Q12809 whole entry): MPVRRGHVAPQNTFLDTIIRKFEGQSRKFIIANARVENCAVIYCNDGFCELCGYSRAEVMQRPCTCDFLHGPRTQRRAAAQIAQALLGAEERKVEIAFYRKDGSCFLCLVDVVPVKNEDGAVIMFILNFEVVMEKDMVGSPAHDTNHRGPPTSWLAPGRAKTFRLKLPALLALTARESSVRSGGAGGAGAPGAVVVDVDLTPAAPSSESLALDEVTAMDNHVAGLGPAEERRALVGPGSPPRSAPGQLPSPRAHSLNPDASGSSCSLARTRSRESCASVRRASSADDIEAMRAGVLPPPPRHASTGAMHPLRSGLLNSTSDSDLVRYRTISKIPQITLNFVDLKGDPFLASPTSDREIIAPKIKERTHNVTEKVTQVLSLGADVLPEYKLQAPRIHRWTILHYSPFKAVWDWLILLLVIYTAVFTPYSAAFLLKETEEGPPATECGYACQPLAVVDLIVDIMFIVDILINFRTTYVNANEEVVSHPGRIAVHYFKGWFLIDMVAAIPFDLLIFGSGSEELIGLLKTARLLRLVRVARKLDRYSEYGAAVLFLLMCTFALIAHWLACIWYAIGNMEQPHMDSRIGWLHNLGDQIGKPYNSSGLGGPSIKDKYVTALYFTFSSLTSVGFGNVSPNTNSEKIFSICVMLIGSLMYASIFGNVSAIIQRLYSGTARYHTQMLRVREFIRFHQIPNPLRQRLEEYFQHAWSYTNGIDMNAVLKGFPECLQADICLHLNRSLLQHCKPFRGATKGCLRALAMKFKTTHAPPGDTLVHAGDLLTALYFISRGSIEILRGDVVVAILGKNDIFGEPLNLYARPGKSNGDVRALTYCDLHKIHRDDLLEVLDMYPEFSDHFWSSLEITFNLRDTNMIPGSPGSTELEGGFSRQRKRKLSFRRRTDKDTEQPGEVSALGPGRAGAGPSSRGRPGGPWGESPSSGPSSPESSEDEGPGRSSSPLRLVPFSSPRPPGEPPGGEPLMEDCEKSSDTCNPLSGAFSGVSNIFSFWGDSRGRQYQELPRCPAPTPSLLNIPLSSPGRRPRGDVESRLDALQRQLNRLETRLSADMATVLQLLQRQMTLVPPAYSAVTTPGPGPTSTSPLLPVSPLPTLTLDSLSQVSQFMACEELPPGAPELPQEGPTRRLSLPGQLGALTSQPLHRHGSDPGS

hERG = test: Selectivity ratio of IC50 for human ERG to EC50 for Antiviral activity against HBV infected in human HePAD38 cells; format: toxicity, cell-based; conditions: HePAD38 cells infected with HBV (for the EC50), read-out: Ratio IC50/EC50

Kinetic_solubility [1]	EC50 (Hepatitis B virus)	Compound	further results
Not_determined(Insoluble)	0.0024 µM	CCc1cc(F)cc2[nH]c(C(=O)N3CCN(C(=O)C(=O)NC4(C(F)(F)F)CCOCC4)CC3)cc12	LBF [2]: 56%
Not_determined(Insoluble)	0.24 µM	CC1(NC(=O)C(=O)N2CCN(C(=O)c3cc4cc(F)c(F)cc4[nH]3)CC2)CS(=O)(=O)C1	CC50 at 144 h [3]: > 10 µM
	0.053 µM	C[C@@H](NC(=O)C(=O)N1CCN(C(=O)/C=C/c2c(N)cc(F)cc2F)CC1)C(F)(F)F	
	0.018 µM	O=C(NC1(C(F)(F)F)CCOCC1)C(=O)N1CCN(C(=O)c2cc3cc(F)c(F)cc3[nH]2)CC1	
	0.052 µM	CC1(NC(=O)C(=O)N2CCN(C(=O)c3cc4cc(F)c(F)cc4[nH]3)CC2)COC1	
	0.06 µM	C[C@H]1CN(C(=O)C(=O)NC2(C)CCOCC2)CCN1C(=O)c1cc2cc(F)c(F)cc2[nH]1	
Not_determined(Insoluble)	0.012 µM	Cc1cc(F)cc2[nH]c(C(=O)N3CCN(C(=O)C(=O)NC4(C(F)(F)F)CCOCC4)CC3)cc12	
	0.013 µM	Cc1noc(C2(NC(=O)C(=O)N3CCN(C(=O)c4cc5cc(F)c(F)cc5[nH]4)CC3)CC(F)(F)C2)n1	
Not_determined(Insoluble)	0.028 µM	Cc1noc(C2(NC(=O)C(=O)N3CCN(C(=O)c4cc5c(F)c(F)c(F)cc5[nH]4)CC3)CC(F)(F)C2)n1	
	0.019 µM	CCc1cc(F)cc2[nH]c(C(=O)N3CCN(C(=O)C(=O)NC4(C)COC4)CC3)cc12	
Not_determined(Insoluble)	0.16 µM	CN(C)C(=O)C1(NC(=O)C(=O)N2CCN(C(=O)c3cc4cc(F)c(F)cc4[nH]3)CC2)CC(F)(F)C1	CC50 at 144 h [3]: > 32 µM
	0.0062 µM	CCc1cc(F)cc2[nH]c(C(=O)N3CCN(C(=O)C(=O)NC4(C(F)(F)F)COC4)CC3)cc12	
Not_determined(Insoluble)	0.0013 µM	CCc1cc(F)cc2[nH]c(C(=O)N3CCN(C(=O)C(=O)NC4(c5ccc(C)nc5)COC4)C[C@H]3C)cc12	LBF [2]: 93%
Not_determined(Insoluble)	0.051 µM	Cc1noc(C2(NC(=O)C(=O)N3CCN(C(=O)c4cc5c(Cl)cccc5[nH]4)CC3)CC(F)(F)C2)n1	
Not_determined(Insoluble)	0.018 µM	Cc1noc(C2(NC(=O)C(=O)N3CCN(C(=O)c4cc5c(Cl)c(F)ccc5[nH]4)CC3)CC(F)(F)C2)n1	LBF [2]: 44%
	0.034 µM	CC1(NC(=O)C(=O)N2CCN(C(=O)c3cc4cc(F)c(F)cc4[nH]3)CC2)CCC1	
	0.0024 µM	CCc1cc(F)cc2[nH]c(C(=O)N3CCN(C(=O)C(=O)NC4(c5cnn(C)c5)COC4)C[C@H]3C)cc12	
Not_determined(Insoluble)	0.014 µM	O=C(NC1(C(F)(F)F)CCOCC1)C(=O)N1CCN(C(=O)c2cc3c(Cl)cc(F)cc3[nH]2)CC1	
Not_determined(Insoluble)	0.023 µM	Cc1noc(C2(NC(=O)C(=O)N3CCN(C(=O)c4cc5c(F)c(F)ccc5[nH]4)CC3)CC(F)(F)C2)n1	
	0.0038 µM	CCc1cc(F)cc2[nH]c(C(=O)N3CCN(C(=O)C(=O)NC4(C)COC4)C[C@H]3C)cc12	

Kinetic_solubility [1]	EC50 (Hepatitis B virus)	Compound	further results
	0.0024 µM	CCc1cc(F)cc2[nH]c(C(=O)N3CCN(C(=O)C(=O)NC4(c5ccncc5F)COC4)C[C@H]3C)cc12	
Not_determined(Insoluble)	0.026 µM	O=C(NC1(C(F)(F)F)CC1)C(=O)N1CCN(C(=O)c2cc3cc(F)c(F)cc3[nH]2)CC1	CC50 at 144 h [3]: > 10 µM
	0.024 µM	O=C(NC1(c2ccccn2)CCC1)C(=O)N1CCN(C(=O)c2cc3cc(F)c(F)cc3[nH]2)CC1	solubility kinetic ([1]; read-out: Kinetic_solubility): 79 µM (≈ 36.9 µg/mL); CC50 at 144 h [3]: > 10 µM; LBF [2]: 43%
	0.03 µM	CC1(NC(=O)C(=O)N2CCN(C(=O)c3cc4cc(F)c(F)cc4[nH]3)CC2)CCOCC1	
	0.0075 µM	C[C@@H]1CN(C(=O)C(=O)NC2(C)CCOCC2)CCN1C(=O)c1cc2cc(F)c(F)cc2[nH]1	
	0.0022 µM	CCc1cc(F)cc2[nH]c(C(=O)N3CCN(C(=O)C(=O)NC4(C(F)(F)F)CCOCC4)C[C@H]3C)cc12	
	0.007 µM	CCc1cc(F)cc2[nH]c(C(=O)N3CCN(C(=O)C(=O)NC4(c5ncccn5)COC4)C[C@H]3C)cc12	
Not_determined(Insoluble)	0.092 µM	Cc1noc(C2(NC(=O)C(=O)N3CCN(C(=O)c4cc5ccc(Cl)cc5[nH]4)CC3)CC(F)(F)C2)n1	
	0.0029 µM	CCc1cc(F)cc2[nH]c(C(=O)N3CCN(C(=O)C(=O)NC4(c5nc(C)no5)COC4)C[C@H]3C)cc12	
Not_determined(Insoluble)	0.028 µM	Cc1noc(C2(NC(=O)C(=O)N3CCN(C(=O)c4cc5cc(F)c(Cl)cc5[nH]4)CC3)CC(F)(F)C2)n1	
	0.0098 µM	CC1(NC(=O)C(=O)N2CCN(C(=O)c3cc4cc(F)c(F)cc4[nH]3)CC2)CC(F)(F)C1	
		C[C@@H]1CN(C(=O)C(=O)NC2(C(F)(F)F)COC2)CCN1C(=O)c1cc2cc(F)c(F)cc2[nH]1	IC50 [4]: 9.8 µM; selectivity ratio (hERG): 653
	0.054 µM	O=C(NC1(c2c[nH]nn2)CC(F)(F)C1)C(=O)N1CCN(C(=O)c2cc3cc(F)c(F)cc3[nH]2)CC1	
	0.0075 µM	O=C(NC1(c2cccnc2)CCC1)C(=O)N1CCN(C(=O)c2cc3cc(F)c(F)cc3[nH]2)CC1	
Not_determined(Insoluble)	0.14 µM	Cc1noc(C2(NC(=O)C(=O)N3CCN(C(=O)c4cc5ccccc5[nH]4)CC3)CC(F)(F)C2)n1	
	0.01 µM	CCc1cc(F)cc2[nH]c(C(=O)N3CCN(C(=O)C(=O)NC4(c5nc(C)no5)CC(F)(F)C4)CC3)cc12	
	0.0025 µM	CCc1cc(F)cc2[nH]c(C(=O)N3CCN(C(=O)C(=O)NC4(c5cnc(OC)cn5)COC4)C[C@H]3C)cc12	
	0.00079 µM	O=C(NC1(c2ccncc2)CCC1)C(=O)N1CCN(C(=O)c2cc3cc(F)c(F)cc3[nH]2)CC1	
	0.127 µM	C[C@@H](NC(=O)C(=O)N1CCN(C(=O)c2cc3cc(F)c(F)cc3[nH]2)CC1)C(F)(F)F	
